Earlier results on one sequence are cited in paper PMC8091910 (Proteins, 2019).

The test system of data set [1] is pancreatic cancer cell (RWP1). Conditions: human peptide library screen.

“RTLSQLYCSYGPLT [C-terminal MUS81 peptide]”: in the data set with MUS81–EME1 complex, the “disruption / inhibition of MUS81–EME1 complex” value was “disrupting the MUS81–EME1 complex”. The “reduction of cell viability in cancer cell lines” value in the data set with cancer cell lines is listed as “reducing cell viability in cancer cell lines”. In data set [1], the “reduction of cell viability” value is reported as “significantly reduced cell viability”. In the data set on EME1, the “binding to EME1” value is reported as “binds to EME1”.
